“And” between values parts separate entries of the source, which are not always exact repeats. Equal entries are not always repeated.
Key:
[1] = Cannabinoids and Δ^9-THC metabolites in capillary blood (LC-HRMS); details: pre-smoking
Description: The complex nature of cannabinoid pharmacokinetics and pharmacodynamics calls for a new approach for effectively determining recent use of cannabis within the impairment window. We sought to develop a multiple-parameter test based on pharmacological changes in Δ^9-THC and its metabolites in blood over time. This approach requires the collection of two samples separated by a known time interval, which is a critical difference compared to current blood testing methods that rely on the collection of a single sample. The two-sample strategy makes possible the detection of Δ^9-THC in its distribution phase where the half-life is very short [Moeller M R. et al., J Forensic Sci 37:969-83 (1992); Wall M E. et al., Clin Pharmacol Ther 34:352-63 (1983)], which occurs only within the first few hours after smoking, and for the evaluation of how Δ^9-THC metabolite levels in blood are changing with time relative to Δ^9-THC. A liquid chromatography high-resolution mass spectrometry (LC-HRMS) bioanalytical method for the quantification of cannabinoids in microsamples (50 μL) of whole blood was developed and validated for this purpose [DeGregorio M W. et al., J AOAC Int 103:725-35 (2020)].
A total of 92 subjects were included in clinical trials designed to evaluate the feasibility of the described method for determining recent cannabis use (blood-based study in 48 subjects) and recent cannabis use and impairment (breath- and blood-based study in 44 subjects). Each subject was given a single cannabis cigarette and instructed to smoke as much of it as possible within a 10-minute period. Cigarettes containing 500 mg of dried cannabis flower were prepared immediately before each smoking session. During the studies, subjects were given a variety of cannabis chemovars to smoke, with Δ^9-THC content ranging from a low of 8.5% to a high of 28.4%. A wide variety of chemovars was included to account for the variability in Δ^9-THC potencies available in numerous cannabis retail establishments in the various U.S. states where recreational and/or medicinal cannabis has been legalized. Capillary blood samples ([…] collected at various time points prior to smoking and up to 200 minutes after smoking, were obtained from a total of 92 subjects using a variety of methods including lancets and two types of automated blood collection devices. Exhaled breath samples were collected from a total of 44 subjects at various time points prior to smoking and up to 240 minutes post-smoking. Breath samples were collected using devices equipped with electrostatic polymer filters and that are designed to collect approximately 20 L of exhaled breath through normal breathing. The time required for breath sample collection was approximately 2-3 minutes. A total of 74 subjects were asked to self-assess their level of impairment before smoking and at each designated sampling time point after smoking based on a scale ranging from 0 (not impaired) to 10 (very impaired) as shown in FIG. 2. As a physical indicator of impairment, 44 subjects were evaluated for horizontal gaze nystagmus.
One of the first endpoints investigated during clinical development of the recent use test method was whether there is any relationship between blood Δ^9-THC levels and impairment. Prior to smoking, Δ^9-THC blood concentrations were evaluated in a group of 30 subjects before and up to 200 minutes after smoking a 500-mg cannabis cigarette and compared to a common legal limit (5 ng/mL) for establishing driver impairment due to cannabis.

[2] = Presence of cannabinoids in exhaled breath before and after smoking (LC-HRMS); assay type: in vivo, human
Experimental: (§1) The positive recent use test results outside of the three-hour impairment window based on blood sampling alone led to the incorporation of a second testing matrix, exhaled breath, to strengthen the results of the test method so that cannabis users who are within the impairment window after smoking can be more accurately identified. For this purpose, a total of 44 additional subjects were evaluated in a smoking study in which both exhaled breath and blood samples were collected and then analyzed by LC-HRMS for cannabinoids and Δ^9-THC metabolites. As with the 48-subject blood-based study, subjects were given a 500-mg cannabis cigarette to smoke, and breath and blood samples were collected at various time points before and after smoking.

[3] = Cannabinoid half-lives in exhaled breath, multi-point breath sampling; assay type: in vivo, human; details: for Cannabinoid Half-Lives (min) in breath, back-to-back sampling: individual subject
Experimental: as §1
These included the presence of CBN, CBC, CBG, Δ^9-THCV, and CBGA, and short half-lives (<60 minutes) for Δ^9-THC, CBN, CBC, CBG, and Δ^9-THCV (see Table 5 below). […] Pre-smoking, half-lives were calculable for Δ^9-THC in only three subjects.
Evidence of recent cannabis use by inhalation through smoking or vaping dissipates rapidly in exhaled breath, and thus allowing 20 minutes between breath samplings, which was employed in the blood-based study and for most of the subjects in the blood and breath-based study, may result in the loss of valuable data. In the last nine subjects involved in the exhaled breath study, a back-to-back sample collection strategy was employed whereby two exhaled breath samples were collected in quick succession at 20 and 40 minutes post-smoking. Approximately two minutes elapsed between the collection of each sample. The very short half-lives observed for Δ^9-THC, CBN, and other cannabinoids (approximately five minutes or less) in exhaled breath would allow for rapid sampling (see Table 6 below).

[4] = Stability of target analytes in the breath collection device; assay type: physicochemical
Description: In particular, CBN, CBG, and Δ^9-THCV all have a much greater incidence in breath during peak impairment (the first hour after smoking) compared to pre-smoking. […] Stability of the analytes within the breath collection devices was previously established (see Table 4 below).

[5] = Breath/blood Δ^9-THC ratio; details: all 44 subjects
Description: We hypothesized that the incorporation of both exhaled breath and blood into a comprehensive recent cannabis use test would confirm recent use of inhaled cannabis within the impairment window, improving the accuracy of the two-point breath testing method. For this purpose, blood samples were collected from the 44 subjects in addition to breath samples and analyzed for Δ^9-THC and other cannabinoids. […] This ratio was computed by dividing the Δ^9-THC peak area ratio to the internal standard in breath by the corresponding peak area ratio in blood.

[6] = separate 20-subject and 23-subject studies (Lynch; Olla); cited from earlier work

For `CCCCCc1cc(O)c2c(c1)OC(C)(C)[C@@H]1CCC(C)=C[C@@H]21` [Δ^9-THC, Δ^9-tetrahydrocannabinol], the “detection in subjects' blood samples at baseline prior to smoking” value [1] was “detected”, the “average baseline Δ^9-THC concentration in blood” value ([1]; 12-24 h abstinence, n=30) was 10.5 ± 15 ng/mL and the “baseline Δ^9-THC levels in blood” value ([1]; 16 of 30 subjects) was “exceeded 5 ng/mL”. The “median baseline Δ^9-THC concentration in blood” value ([1]; n=30) was 6.4 ng/mL, the “Presence in exhaled breath, Percent (%) Positivity” value ([2]; >60 minutes after smoking) was “(92.5%)” and the “Presence in exhaled breath, positive/evaluable subjects” value (“Presence … positive/evaluable subjects” below) ([2]; >60 minutes after smoking) was 37/40. The “Presence … positive/evaluable subjects” value ([2]; Baseline (Pre-smoking)) was 23/34, the “Presence in exhaled breath, Percent (%) Positivity” value ([2]; ≤60 minutes after smoking) was “(100%)” and the “Presence … positive/evaluable subjects” value ([2]; ≤60 minutes after smoking) was 40/40. For the same compound, the “Average Half-Life (minutes ± SD) in breath” value ([3]; 0-10 Minutes Post-Smoking) was 4.4 ± 2.2 min, the “Average Half-Life (minutes ± SD) in breath” value ([3]; 0-20 Minutes Post-Smoking) was 4.2 ± 2.1 min and the “Average Half-Life (minutes ± SD) in breath” value ([3]; 20-40 Minutes Post-Smoking) was 8.1 ± 2.3 min. For the same compound, the “Average Half-Life (minutes ± SD) in breath” value ([3]; 20-60 Minutes Post-Smoking) was 12.8 ± 8.8 min, the “Cannabinoid Half-Lives (min) in breath, back-to-back sampling, Average” value ([3]; 20 Minutes Post-Smoking) was 3.5 min and 2.2 min and the “Cannabinoid Half-Lives (min) in breath, back-to-back sampling” value ([3]; 20 Minutes Post-Smoking) was 1.9 min (2×) and 2.3 min and 2.1 min and 2.9 min and 2.8 min and 1.0 min and 1.4 min and 1.6 min and 7.3 min and 3.8 min and 11.8 min and 1.2 min and 0.9 min. For the same compound, the “Average Half-Life (minutes ± SD) in breath” value ([3]; 40-60 Minutes Post-Smoking) was 24.4 ± 25.4 min, the “Cannabinoid Half-Lives (min) in breath, back-to-back sampling, Average” value ([3]; 40 Minutes Post-Smoking) was 6.1 min and the “Cannabinoid Half-Lives (min) in breath, back-to-back sampling” value ([3]; 40 Minutes Post-Smoking) was 2.2 min and 9.9 min and 3.7 min and 5.9 min and 8.6 min. The “Average Half-Life (minutes ± SD) in breath” value ([3]; 60-80 Minutes Post-Smoking) was 35.0 ± 41.7 min, the “Average Half-Life (minutes ± SD) in breath” value ([3]; Pre-Smoking) was 28.8 ± 28.7 min and the “half-lives observed in exhaled breath” value ([3]; approximate, summary statement) was “five”. The “Analyte Stability (%) at Room Temperature (20-25° C.)” value (“Analyte Stability (%)” below) ([4]; Day 3, breath collection device) was 91.3%, the “Analyte Stability (%)” value ([4]; Day 7, breath collection device) was 81.2% and the “Analyte Stability (%)” value ([4]; Day 10, breath collection device) was 82.9%. For the same compound, the “Analyte Stability (%)” value ([4]; Day 14, breath collection device) was 66.2%, the “Analyte Stability (%)” value ([4]; Day 30, breath collection device) was 55.6% and the “breath/blood Δ^9-THC ratio” value ([5]; immediately after smoking) was > 2. For the same compound, the “breath/blood Δ^9-THC ratio” value ([5]; within the first hour after smoking) was ≥ 2 and the “pre-smoking detection rates of Δ^9-THC in breath” value [6] was 100%.

Reference: patent US20240027479A1, “A Comprehensive Breath Test that Confirms Recent Use of Inhaled Cannabis within the Impairment Window” (RCU Labs, Inc., priority 2018, published 2024)
